Laboratory results published in publication PMC11053489 (Viruses, 2024).
Like-named read-outs stand apart in the source and are kept apart here.

Columns and labels:
[1] = test system: SARS-CoV-2 (hCoV-19/USA-WA1/2020) in Caco-2 cells; assay: microbe, parasite or virus in culture; conditions: Severe acute respiratory syndrome coronavirus 2, Caco-2, 72 h; for EC50: read-out: Caco-2 SARS-CoV-2 EC50; for EC90: read-out: Caco-2 SARS-CoV-2 EC90
[2] = in vitro; conditions: human
[3] = in vitro; conditions: human; remark: listed apart in the source
[4] = in vitro; conditions: human; remark: listed apart in the source
[5] = test system: SARS-CoV-2 (hCoV-19/USA-WA1/2020) in Caco-2 cells
[6] = test system: SARS-CoV-2 (hCoV-19/USA-WA1/2020) in Calu-3 cells; assay: microbe, parasite or virus in culture; assay type: cell-based; conditions: for EC50: read-out: Calu-3 SARS-CoV-2 EC50; for EC90: read-out: Calu-3 SARS-CoV-2 EC90
[7] = in vitro; conditions: African green monkey
[8] = test system: SARS-CoV-2 (hCoV-19/USA-WA1/2020) in Vero CCL-81 cells; assay: microbe, parasite or virus in culture; assay type: cell-based; conditions: for EC50: read-out: Vero CCL-81 SARS-CoV-2 EC50; for EC90: read-out: Vero CCL-81 SARS-CoV-2 EC90
[9] = cited from earlier work
[10] = human, in vivo
[11] = in vitro; conditions: human; remark: listed apart in the source
[12] = in vitro; conditions: human, Caco-2
[13] = test system: primary human peripheral blood mononuclear cells (PBM)
[14] = test system: CCRF-CEM cells
[15] = test system: Huh-7 cells
[16] = test system: Vero CCL-81 cells
[17] = test system: Calu-3 cells
[18] = test system: Caco-2 cells
[19] = cited from earlier work; remark: listed apart in the source
[20] = African Green monkeys, oral; cited from earlier work
[21] = test system: COVID-19 / SARS-CoV-2 infection; conditions: cited from earlier work
[22] = Peak plasma concentration
[23] = MTS cytotoxicity assay, Calu-3 cells; conditions: human
[24] = MTS cytotoxicity assay, Vero CCL-81 cells; conditions: African green monkey
[25] = MTS cytotoxicity assay, Huh-7 cells; conditions: human
[26] = MTS cytotoxicity assay, CEM cells; conditions: human
[27] = MTS cytotoxicity assay, Caco-2 cells; conditions: human
[28] = MTS cytotoxicity assay, PBM cells; conditions: human
[29] = following an IV infusion of remdesivir over 2 h, in vivo; cited from earlier work
[30] = human astrocytes and hBTEC; cited from earlier work
[31] = primary hepatocytes; cited from earlier work
[32] = test system: Huh-7 cells; assay: MTS cytotoxicity assay, Huh-7 cells; conditions: read-out: Huh7 CC50; 4 days
[33] = test system: CCRF-CEM cells; assay: MTS cytotoxicity assay, CEM cells; conditions: read-out: CEM CC50; 4 days
[34] = test system: primary human peripheral blood mononuclear cells (PBM); assay: MTS cytotoxicity assay, PBM cells; conditions: read-out: PBM CC50; 5 days
[35] = Severe acute respiratory syndrome coronavirus 2, Calu-3, MOI 0.01, 72 h, 2% FBS
[36] = Severe acute respiratory syndrome coronavirus 2, Table 1 drugs, MOI 0.1, 48 h, 2% FBS
[37] = Table 1, ref column Refs of Table 1
[38] = Severe acute respiratory syndrome coronavirus 2, Calu-3, 72 h
[39] = Severe acute respiratory syndrome coronavirus 2, 48 h

## CC(c1cc2ccccc2s1)N(O)C(N)=O (stereo not shown) [Zileuton]
[1]
  EC50: > 100 µM
[2]
  CC50 at 4 days: > 100 µM
[3]
  CC50 at 4 days: > 100 µM
[4]
  CC50 at 5 days: > 100 µM
[5]; Caco-2
  Caco-2 Unbound Cmax/EC50: 0.003
[6]; [35]
  EC50: > 100 µM
[7]
  CC50 at 3 days: > 100 µM
[8]; [36]
  EC50: 6.7 µM
  EC90: 35.8 µM
[9]; [37]
  Fun (unbound fraction of drug in plasma): 0.07
[10]
  Cmax (μM) {unbound}: 0.16 µM
[11]
  CC50 at 3 days: 46.7 µM
[12]
  CC50 at 3 days: > 100 µM

## O=c1c2ccccc2[se]n1-c1ccccc1 [Ebselen]
[1]
  EC50: > 100 µM
[13]; human, 5 days
  PBM CC50 {Unbound}: 75.5 µM
[4]
  CC50 at 5 days: 93.2 µM
[14]; human, 4 days
  CEM CC50 {Unbound}: 42.3 µM
[6]; [38]
  EC50: 6.5 µM
  EC90: > 10 µM
[7]
  CC50 at 3 days: 22.4 µM
[8]; [39]
  EC50: 1.1 µM
  EC90: 2.7 µM
[15]; human, 4 days
  Huh7 CC50 {Unbound}: 76.3 µM
[9]; plasma
  Fun (unbound fraction of drug in plasma): 0.05
[10]
  Cmax (μM) {unbound}: 0.013 µM
[11]
  CC50 at 3 days: > 100 µM
[12]
  CC50 at 3 days: > 100 µM
[16]; African green monkey, 3 days
  Vero CC50 {Unbound}: 20.3 µM

## O=c1nc(NO)ccn1[C@@H]1O[C@H](CO)[C@@H](O)[C@H]1O [NHC, β-D-N4-hydroxycytidine]
[13]
  CC50: 59.8 µM
[17]
  CC50: > 100 µM
[18]
  CC50: > 100 µM
[19]; in vivo, iv
  plasma t1/2: 3.3 h
[15]
  CC50: 59.1 µM
[16]
  CC50: 18.8 µM

## CCC(CC)COC(=O)[C@H](C)N[P@](=O)(OC[C@H]1O[C@@](C#N)(c2ccc3c(N)ncnn23)[C@H](O)[C@@H]1O)Oc1ccccc1 [Remdesivir]
[1]
  EC50: 0.02 µM
  EC90: 0.1 µM
[20]
  fraction of orally administered drug entering the systemic circulation intact: < 1%
[5]; Caco-2
  Caco-2 Unbound Cmax/EC50: 22
[6]; [35]
  EC50: 0.2 µM
  EC90: 0.7 µM
[21]; IV remdesivir, hospitalized patients with COVID-19, ACTT-1 trial
  shortening of hospitalization duration: 5 days
[21]; IV, 3-day course, high-risk non-hospitalized patients, PINETREE trial
  reduction in hospitalizations: 87%
[19]; remdesivir following IV infusion
  plasma t1/2: ~ 1 h
[7]
  CC50: > 100 µM
[22]; Table 1, Cmax × Fun
  Cmax (μM) {unbound}: 0.44 µM
[8]; [36]
  EC50: 3.2 µM
  EC90: 4.7 µM
[9]; [37]
  Fun (unbound fraction of drug in plasma): 0.12
[12]
  CC50: > 100 µM

## NC(=O)c1nc(F)c[nH]c1=O [Favipiravir]
[1]
  EC50: 256 µM
  EC90: > 300 µM
[2]
  CC50 at 4 days: > 100 µM
[3]
  CC50 at 4 days: > 100 µM
[4]
  CC50 at 5 days: > 100 µM
[5]; Caco-2
  Caco-2 Unbound Cmax/EC50: 0.74
[6]; [35]
  EC50: > 300 µM
[7]
  CC50 at 3 days: > 100 µM
[8]; [36]
  EC50: 90.6 µM
  EC90: 234 µM
[10]
  Cmax (μM) {unbound}: 193 µM
[11]
  CC50 at 3 days: > 300 µM
[12]
  CC50 at 3 days: > 300 µM

## COCCCC/C(=N\OCCN)c1ccc(C(F)(F)F)cc1 [Fluvoxamine (maleate)]
[1]
  EC50: 17.9 µM
  EC90: 47.5 µM
[23]
  CC50 at 3 days: > 100 µM
[24]
  CC50 at 3 days: 35.5 µM
[25]
  CC50 at 4 days: 36.7 µM
[26]; CEM CC50, 4 days
  CC50 at 4 days: 20 µM
[27]
  CC50 at 3 days: > 100 µM
[5]; Cmax × Fun/EC50
  Caco-2 Unbound Cmax/EC50: 0.0017
[6]; [35]
  EC50: > 100 µM
[28]
  CC50 at 5 days: 35.4 µM
[22]; human, in vivo
  Cmax (μM) {unbound}: 0.003 µM
[8]; [36]
  EC50: > 100 µM
[8]; Vero CCL-81 cells, up to 100 μM
  anti-SARS-CoV-2 activity (in words), concentrations up to 100 μM: inactive
[9]; [37]
  Fun (unbound fraction of drug in plasma): 0.23

## COC(=O)N[C@H](C(=O)N1CCC[C@H]1c1nc(-c2ccc(-c3ccc(-c4c[nH]c([C@@H]5CCCN5C(=O)[C@@H](NC(=O)OC)C(C)C)n4)cc3)cc2)c[nH]1)C(C)C [Daclatasvir]
[1]
  EC50: 44.7 µM
  EC90: 89.4 µM
[13]; human
  PBM CC50 {Unbound}: 36.4 {29.2} μM
[5]; Caco-2
  Caco-2 Unbound Cmax/EC50: 0.0005
[14]; human
  CEM CC50 {Unbound}: 26.2 {23.6} μM
[6]; [35]
  EC50: > 100 µM
[7]
  CC50: 50.6 µM
[22]; Table 1, Cmax × Fun
  Cmax (μM) {unbound}: 0.02 µM
[8]; [36]
  EC50: 0.7 µM
  EC90: 3.5 µM
[15]; human
  Huh7 CC50 {Unbound}: 53.6 {48.3} μM
[9]; [37]
  Fun (unbound fraction of drug in plasma): 0.01
[12]
  CC50: 67.6 µM
[16]; African green monkey
  Vero CC50 {Unbound}: 50.6 {45.6} μM

## N#C[C@@]1(c2ccc3c(N)ncnn23)O[C@H](COP(=O)(O)OP(=O)(O)OP(=O)(O)O)[C@@H](O)[C@H]1O [GS-441524-TP]
[29]
  t1/2 of GS-441524-TP in human blood mononuclear cells: 36 to 43 h

## O=c1nc(NO)ccn1[C@@H]1O[C@H](COP(=O)(O)OP(=O)(O)OP(=O)(O)O)[C@@H](O)[C@H]1O [NTP of NHC]
[30]
  cellular t1/2: 4 to 5 h
[31]
  cellular t1/2: 0.4 to 1.1 h

## Iota-Carrageenan
[17]
  CC50: > 100 µM
[32]
  CC50: > 100 µM
[33]
  CC50: 95.9 µM
[5]; Caco-2
  EC90: 93.3 µM
[6]
  EC90: 1.9 µM
[34]
  CC50: > 100 µM
[18]
  CC50: > 100 µM
[21]; topical nasal spray, 300 hospital personnel
  absolute risk reduction: 4%
[8]
  EC90: 1.6 µM

## Cc1cccc(Nc2ccccc2C(=O)O)c1C [Mefenamic acid]
[1]
  EC50: > 100 µM
[23]
  CC50 at 3 days: > 100 µM
[24]
  CC50 at 3 days: > 100 µM
[25]
  CC50 at 4 days: > 100 µM
[26]
  CC50 at 4 days: > 100 µM
[27]
  CC50 at 3 days: > 100 µM
[6]; [35]
  EC50: > 100 µM
[28]
  CC50 at 5 days: > 100 µM
[21]; with standard medical care versus placebo plus standard care, 38 ambulatory individuals
  higher probability of achieving patient-acceptable symptoms on day 8: about 16 fold
[22]; human, in vivo
  Cmax (μM) {unbound}: 1.58 µM
[8]; [36]
  EC50: 87.6 µM
  EC90: > 100 µM
[9]; [37]
  Fun (unbound fraction of drug in plasma): 0.1

## CC(C)(C)[C@H](NC(=O)C(F)(F)F)C(=O)N1C[C@H]2[C@@H]([C@H]1C(=O)N[C@H](C#N)C[C@@H]1CCNC1=O)C2(C)C [Nirmatrelvir]
[1]
  EC50: 0.1 µM
  EC90: 0.3 µM
[2]; CEM CC50, 4 days
  CC50: > 100 µM
[3]
  CC50: > 100 µM
[4]
  CC50: > 100 µM
[5]; Caco-2
  Caco-2 Unbound Cmax/EC50: 6.8
[6]; [38]
  EC50: 1.8 µM
  EC90: 8.8 µM
[7]
  CC50: > 100 µM
[22]; Table 1, Cmax × Fun
  Cmax (μM) {unbound}: 2.13 µM
[8]; [39]
  EC50: 3.7 µM
  EC90: 5.6 µM
[9]; [37]
  Fun (unbound fraction of drug in plasma): 0.31
[11]
  CC50: > 100 µM
[12]
  CC50: > 100 µM

## Ivermectin
[13]
  PBM CC50 {Unbound}: 29.2 {23.8} μM
[17]
  CC50: 17.5 µM
[32]
  CC50: 5.6 µM
[33]
  CC50: 12 µM
[5]; Caco-2
  Caco-2 Unbound Cmax/EC50: 0.005
  EC90: 8.9 µM
[5]; read-out: Caco-2 SARS-CoV-2 EC50
  EC50: 4.5 µM
[14]
  CEM CC50 {Unbound}: 12 {9.5} μM
[6]
  EC50: 6.2 µM
  EC90: 9.3 µM
[34]
  CC50: 29.2 µM
[18]
  CC50: 5.8 µM
[8]
  EC50: 2.1 µM
  EC90: 4.5 µM
[15]
  Huh7 CC50 {Unbound}: 5.6 {5.1} μM
[9]; [37]
  Fun (unbound fraction of drug in plasma): 0.07
[16]
  CC50: 35.2 µM
  Vero CC50 {Unbound}: 35.2 {31.9} μM
